Columns and labels:
NCI-H1299 cells = test: CCK-8 assay, NCI-H1299 cells; type: cell-based, human; conditions: CCK-8, 48 h, mean ± SD, n = 3
Experimental: (§1) Next, cell viability was determined according to the instructions of the CCK-8 assay. Then, 10 μL CCK-8 solution was added to each well of the plate and incubated for 1–4 h in the incubator. […] The percentage of viable cells was measured using the following formula where three independent experiments were performed: [(A450sample − A450blank)/(A450control − A450blank)] × 100%.

NCI-H1437 cells = test: CCK-8 assay, NCI-H1437 cells; type: cell-based; conditions: CCK-8, 48 h, mean ± SD, n = 3
Experimental: as §1

A549 cells = test: CCK-8 assay, A549 cells; type: cell-based; conditions: CCK-8, 48 h, mean ± SD, n = 3
Experimental: as §1

IDO1 = conditions: read-out: IDO1 inhibitory activity IC50; cited from earlier work

Compound	IC50 (NCI-H1299 cells)	IC50 (NCI-H1437 cells)	IC50 (A549 cells)	IC50 (NCI-H1299 cells; Homo sapiens, NCI-H1299)	IC50 (NCI-H1437 cells; Homo sapiens, NCI-H1437)	IC50 (A549 cells; Homo sapiens, A549)	melting point	IC50 (IDO1)
7-Methoxy-N-(3-(1-(2-methyl-3-nitrophenyl)-1H-1,2,3-triazol-4-yl)phenyl)-6-(3-morpholinopropoxy)quinazolin-4-amine [Compound 4g]	6.02 ± 0.12 µM	2.15 ± 0.1 µM	4.65 ± 0.08 µM					
COc1cc2ncnc(Nc3cccc(-c4cn(Cc5ccc(F)c(Cl)c5)nn4)c3)c2cc1OCCCN1CCOCC1 [Compound 4a, N-(3-(1-(3-Chloro-4-fluorobenzyl)-1H-1,2,3-triazol-4-yl)phenyl)-7-methoxy-6-(3-morpholinopropoxy)quinazolin-4-amine]				7.59 ± 0.19 µM	2.05 ± 0.03 µM	6.81 ± 0.33 µM	192 to 193 °C	
COc1cc2ncnc(Nc3cccc(-c4cn(-c5ccc(Cl)cc5)nn4)c3)c2cc1OCCCN1CCOCC1 [Compound 4d, N-(3-(1-(4-Chlorophenyl)-1H-1,2,3-triazol-4-yl)phenyl)-7-methoxy-6-(3-morpholinopropoxy)quinazolin-4-amine]				11.4 ± 0.97 µM	6.41 ± 0.54 µM	9.04 ± 0.41 µM	162 to 163 °C	
COc1cc2ncnc(Nc3cccc(-c4cn(-c5ccccc5Br)nn4)c3)c2cc1OCCCN1CCOCC1 [Compound 4e, N-(3-(1-(2-Bromophenyl)-1H-1,2,3-triazol-4-yl)phenyl)-7-methoxy-6-(3-morpholinopropoxy)quinazolin-4-amine]				11.9 ± 0.32 µM	11.2 ± 0.95 µM	8.62 ± 0.76 µM	175 to 176 °C	
COc1cc2ncnc(Nc3cccc(-c4cn(-c5ccc([N+](=O)[O-])c(C)c5)nn4)c3)c2cc1OCCCN1CCOCC1 [Compound 4f, 7-Methoxy-N-(3-(1-(3-methyl-4-nitrophenyl)-1H-1,2,3-triazol-4-yl)phenyl)-6-(3-morpholinopropoxy)quinazolin-4-amine]				13.3 ± 0.52 µM	9.27 ± 0.4 µM	13.7 ± 0.71 µM	175 to 176 °C	
COc1cc2ncnc(Nc3cccc(-c4cn(-c5ccccc5Cl)nn4)c3)c2cc1OCCCN1CCOCC1 [Compound 4h, N-(3-(1-(2-Chlorophenyl)-1H-1,2,3-triazol-4-yl)phenyl)-7-methoxy-6-(3-morpholinopropoxy)quinazolin-4-amine]				7.69 ± 0.11 µM	3.09 ± 0.13 µM	9.81 ± 0.34 µM	167 to 168 °C	
COc1cc2ncnc(Nc3cccc(-c4cn(-c5cccc(F)c5)nn4)c3)c2cc1OCCCN1CCOCC1 [Compound 4i, N-(3-(1-(3-Fluorophenyl)-1H-1,2,3-triazol-4-yl)phenyl)-7-methoxy-6-(3-morpholinopropoxy)quinazolin-4-amine]				9.35 ± 0.31 µM	4.77 ± 0.32 µM	13 ± 0.29 µM		
COc1cc2ncnc(Nc3cccc(-c4cn(-c5cccc6c5C(=O)N(C5CCC(=O)NC5=O)C6=O)nn4)c3)c2cc1OCCCN1CCOCC1 (stereo not drawn) [Compound 4j, 2-(2,6-Dioxopiperidin-3-yl)-4-(4-(3-((7-methoxy-6-(3-morpholinopropoxy)quinazolin-4-yl)amino)phenyl)-1H-1,2,3-triazol-1-yl)isoindoline-1,3-dione]				12 ± 0.33 µM	6.6 ± 0.07 µM	11.4 ± 0.89 µM	187 to 188 °C	
COc1cc2ncnc(Nc3cccc(-c4cn(Cc5ccc(Br)cc5)nn4)c3)c2cc1OCCCN1CCOCC1 [Compound 4k, N-(3-(1-(4-Bromobenzyl)-1H-1,2,3-triazol-4-yl)phenyl)-7-methoxy-6-(3-morpholinopropoxy)quinazolin-4-amine]				7.15 ± 0.12 µM	5.95 ± 0.72 µM	8.95 ± 0.99 µM	177 to 178 °C	
COc1cc2ncnc(Nc3cccc(-c4cn(Cc5ccccc5C#N)nn4)c3)c2cc1OCCCN1CCOCC1 [Compound 4l, 2-((4-(3-((7-Methoxy-6-(3-morpholinopropoxy)quinazolin-4-yl)amino)phenyl)-1H-1,2,3-triazol-1-yl)methyl)benzonitrile]				5.43 ± 0.24 µM	2.23 ± 0.26 µM	7.53 ± 0.66 µM	167 to 168 °C	
COc1cc2ncnc(Nc3cccc(-c4cn(Cc5cc(Br)cc(Br)c5)nn4)c3)c2cc1OCCCN1CCOCC1 [Compound 4m, N-(3-(1-(3,5-Dibromobenzyl)-1H-1,2,3-triazol-4-yl)phenyl)-7-methoxy-6-(3-morpholinopropoxy)quinazolin-4-amine]				4.79 ± 0.13 µM	2.53 ± 0.11 µM	2.39 ± 0.3 µM		
COc1cc2ncnc(Nc3cccc(-c4cn(Cc5ccc(C)cc5)nn4)c3)c2cc1OCCCN1CCOCC1 [Compound 4n, 7-methoxy-N-(3-(1-(4-methylbenzyl)-1H-1,2,3-triazol-4-yl)phenyl)-6-(3-morpholinopropoxy)quinazolin-4-amine]				5.91 ± 0.44 µM	5.79 ± 0.88 µM	10.4 ± 0.82 µM	168 to 169 °C	
Oc1ccc(Cl)cc1-c1cnn[nH]1 [MMG-0358]								0.082 µM
Clc1ccc(Nc2cnn[nH]2)cc1 [Vertex-AT]								0.023 µM
COCCOc1cc2ncnc(Nc3cccc(-c4cn(Cc5ccccc5Br)nn4)c3)c2cc1OCCOC [compound e]								0.32 ± 0.07 µM

— article PMC10892142, “Synthesis and In Vitro Antitumor Activity Evaluation of Gefitinib-1,2,3-Triazole Derivatives” (Molecules, 2024)
